Patent US20180327367A1, “MACROCYCLIC BROAD SPECTRUM ANTIBIOTICS” (priority 2015, published 2018)
Converted amounts (≈) assume the structure as drawn. Like-named read-outs stand apart in the source and are kept apart here.

Columns and labels:
[1] = system: Methicillin Resistant Staphylococcus aureus strain USA 300, NRS384; assay: Minimum inhibitory concentration, broth micro-dilution (CLSI), S. aureus; assay type: cell-based; details: 35° C., 22 hours; for MIC: Staphylococcus aureus, MRSA / NRS 384 / USA300, 22 h
Method in brief: (§1)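 CLSI broth microdilution in cation-adjusted Mueller Hinton Broth with 0.002% Tween-80; inoculum final OD600 0.0005, 22 hours at 35° C. Ten 2-fold dilutions starting at 4 μg/mL (protocol 2) or 0.5 μg/mL (protocol 3).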

[2] = system: Escherichia coli MC4100 harboring the IMP4213 (E. coli IMP); assay: microbe, parasite or virus in culture; assay type: cell-based; details: 35° C., 22 hours; for MIC: Escherichia coli, 22 h, read-out: MIC (μg/mL) E. coli IMP, E. coli MC4100 IMP4213, increased outer-membrane permeability
Method in brief: as §1

[3] = system: Escherichia coli ATCC 25922; assay: Minimum inhibitory concentration, broth micro-dilution (CLSI), E. coli; assay type: cell-based; details: 35° C., 22 hours; for MIC: Escherichia coli, ATCC25922, 22 h
[4] = biological target: T1, SpsB (Staphylococcus aureus signal peptidase) (Staphylococcus aureus, UniProt P0A070); assay: cell-based; assay type: biochemical; details: SpsB IC50, whole-cell S. aureus (USA300 background, overexpressing SpsB) as SpsB source; fluorogenic peptide substrate, kinetic read 30 min
T1 construct: This assay uses a suspension of Staphylococcus aureus cells as a source of SpsB instead of recombinant SpsB protein; endogenous in cells; host or cells: S. aureus, USA300 background, overexpressing SpsB (whole-cell suspension from frozen pellets)
T1 sequence (P0A070 whole entry): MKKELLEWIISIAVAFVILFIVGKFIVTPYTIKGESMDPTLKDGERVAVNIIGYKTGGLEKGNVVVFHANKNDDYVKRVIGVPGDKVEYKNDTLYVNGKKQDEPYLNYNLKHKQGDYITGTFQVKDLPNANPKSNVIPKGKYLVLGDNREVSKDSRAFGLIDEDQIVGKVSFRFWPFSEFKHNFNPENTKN
Method in brief: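 Whole S. aureus cells (USA300, overexpressing SpsB) in PBS with MgCl2, CaCl2 and 0.1% Tween-80 served as enzyme source, mixed with 20 μM stock of (Dabcyl)βAla-KPAKAAE(Edans) substrate before use. Fluorescence (ex 340/em 490 nm) read kinetically over 30 min. IC50 from reaction rate versus 11-point inhibitor concentration.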

[5] = MRSA USA 300 NRS384, read-out: MIC (μg/mL) S. aureus
[6] = E. coli ATCC 25922, read-out: MIC (μg/mL) E. coli
[7] = read-out: MIC (μg/mL) S. aureus, MRSA USA 300 NRS384
[8] = read-out: MIC (μg/mL) E. coli, E. coli ATCC 25922

SMILES	MIC [1, 5] [µg/mL]	MIC [2] [µg/mL]	MIC [3, 6] [µg/mL]	IC50 [4] [nM]	MIC [1, 7] [µg/mL]	MIC [3, 8] [µg/mL]	MIC (μg/mL) S. aureus ([1]; MRSA USA 300 NRS384) [µg/mL]	MIC (μg/mL) E. coli IMP ([2]; E. coli MC4100 IMP4213, increased outer-membrane permeability) [µg/mL]	MIC (μg/mL) E. coli ([3]; E. coli ATCC 25922) [µg/mL]
CCCCCCCCCCCCCC(=O)N[C@@H](CCN)C(=O)N(C)[C@@H]1C(=O)N[C@@H](C)C(=O)N[C@H](C(=O)NCC#N)Cc2ccc(OCCN)c(c2)-c2cc1ccc2OCCO [Compound 329]	0.063 (≈ 0.0742 µM)	0.0078 (≈ 0.00919 µM)	0.5 (≈ 0.589 µM)	0.71					
CCCCCCc1ccc(C(=O)N[C@@H](CCN)C(=O)N(C)[C@@H]2C(=O)N[C@@H](C)C(=O)N[C@H](C(=O)NCC#N)Cc3ccc(OCCN)c(c3)-c3cc2ccc3OCCN)cn1 [Compound 201]	0.19 (≈ 0.23 µM)	0.031 (≈ 0.0375 µM)	2 (≈ 2.42 µM)	1.4					
Cc1cc(-c2ccc(CC(C)C)cc2)ccc1C(=O)N[C@@H](CCN)C(=O)N(C)[C@@H]1C(=O)N[C@@H](C)C(=O)N[C@H](C(=O)NCC#N)Cc2ccc(OCCN)c(c2)-c2cc1ccc2OCCN [Compound 146]	0.047 (≈ 0.0529 µM)	0.0078 (≈ 0.00878 µM)	< 0.063	0.9					
CCCCCCCCc1ccc(C(=O)N[C@@H](CC(N)=O)C(=O)N(C)[C@@H]2C(=O)N[C@@H](C)C(=O)N[C@H](C(=O)NCC#N)Cc3ccc(OCCN)c(c3)-c3cc2ccc3OCCN)c(C)c1 [Compound 239]	0.047 (≈ 0.0533 µM)	0.094 (≈ 0.107 µM)	3 (≈ 3.4 µM)	0.74					
Cc1nc(-c2ccc(C(F)(F)F)cc2)ncc1C(=O)N[C@@H](CCN)C(=O)N(C)[C@@H]1C(=O)N[C@@H](C)C(=O)N[C@H](C(=O)NCC#N)Cc2ccc(OCCN)c(c2)-c2cc1ccc2OCCN [Compound 171]	0.094 (≈ 0.104 µM)	0.0078 (≈ 0.00865 µM)	0.5 (≈ 0.554 µM)	0.72					
Cc1cc(C#CC2CCCCC2)ccc1C(=O)N[C@@H](CCN)C(=O)N(C)[C@@H]1C(=O)N[C@@H](C)C(=O)N[C@H](C(=O)NCC#N)Cc2ccc(OCCN)c(c2)-c2cc1ccc2OCCN [Compound 310]	0.047 (≈ 0.0545 µM)	0.0098 (≈ 0.0114 µM)	0.13 (≈ 0.151 µM)	0.99					
C[C@@H]1NC(=O)[C@@H](N(C)C(=O)[C@H](CCCCN)NC(=O)c2ccccc2-c2ccc(Cl)cc2)c2ccc(OCCN)c(c2)-c2cc(ccc2OCCN)C[C@@H](C(=O)NCC#N)NC1=O [Compound 114]		2 (≈ 2.27 µM)		6.1	2 (≈ 2.27 µM)	> 64			
Cc1cc(-c2ccc(CC(C)C)cc2)ccc1C(=O)N[C@@H](CCO)C(=O)N(C)[C@@H]1C(=O)N[C@@H](C)C(=O)N[C@H](C(=O)NCC#N)Cc2ccc(OCCN)c(c2)-c2cc1ccc2OCCN [Compound 261]	0.13 (≈ 0.146 µM)	0.047 (≈ 0.0529 µM)	0.5 (≈ 0.562 µM)	4.6					
Cc1cc(-c2ccccc2)ccc1C(=O)N[C@@H](CCN)C(=O)N(C)[C@@H]1C(=O)N[C@@H](C)C(=O)N[C@H](C(=O)NCC#N)Cc2ccc(OCCN)c(c2)-c2cc1ccc2OCCN [Compound 149]	0.19 (≈ 0.228 µM)	0.023 (≈ 0.0276 µM)	3 (≈ 3.61 µM)	0.8					
CCCCCc1ccc(C(=O)N[C@@H](CCN)C(=O)N(C)[C@@H]2C(=O)N[C@@H](C)C(=O)N[C@H](C(=O)NCC#N)Cc3ccc(OCCN)c(c3)-c3cc2ccc3OCCN)c(C)c1 [Compound 196]	0.094 (≈ 0.114 µM)	0.013 (≈ 0.0157 µM)	0.67 (≈ 0.811 µM)	1.1					
CCCCCCCCCC(=O)N[C@H](CCC)C(=O)N[C@@H](CCN)C(=O)N(C)[C@@H]1C(=O)N[C@@H](C)C(=O)N[C@H](C(=O)NCC#N)Cc2ccc(OCCN)c(c2)-c2cc1ccc2OCCN [Compound 353]		0.016 (≈ 0.018 µM)		0.82	0.047 (≈ 0.0527 µM)	2 (≈ 2.24 µM)			
CCCCCCCOc1cc(Cl)c(C(=O)N[C@@H](CCN)C(=O)N(C)[C@@H]2C(=O)N[C@@H](C)C(=O)N[C@H](C(=O)NCC#N)Cc3ccc(OCCN)c(c3)-c3cc2ccc3OCCN)c(Cl)c1 [Compound 290]		0.012 (≈ 0.013 µM)		1.2	0.063 (≈ 0.0681 µM)	0.38 (≈ 0.411 µM)			
CCCCCCCc1cc(C)c(C(=O)N[C@@H](CCN)C(=O)N(C)[C@@H]2C(=O)N[C@@H](C)C(=O)N[C@H](C(=O)NCC#N)Cc3ccc(OCCN)c(c3)-c3cc2ccc3OCCN)c(Cl)c1 [Compound 205]	0.063 (≈ 0.0709 µM)	0.016 (≈ 0.018 µM)	0.25 (≈ 0.281 µM)	0.85					
C[C@@H]1NC(=O)[C@@H](N(C)C(=O)[C@H](CCCCN)NC(=O)c2ccc(-c3ccc(C(F)(F)F)cc3)cc2)c2ccc(OCCN)c(c2)-c2cc(ccc2OCCN)C[C@@H](C(=O)NCC#N)NC1=O [Compound 112]		0.13 (≈ 0.142 µM)		0.77	0.13 (≈ 0.142 µM)	8 (≈ 8.75 µM)			
CCCCCCCCc1ccc(C(=O)N[C@@H](CCCN)C(=O)N(C)[C@@H]2C(=O)N[C@@H](C)C(=O)N[C@H](C(=O)NCC#N)Cc3ccc(OCCCN)c(c3)-c3cc2ccc3OCCCN)cc1 [Compound 457]	0.047 (≈ 0.0524 µM)	0.0078 (≈ 0.0087 µM)	0.25 (≈ 0.279 µM)	0.64					
CCCCCCCOc1ccc(C(=O)N[C@@H](CCN)C(=O)N(C)[C@@H]2C(=O)N[C@@H](C)C(=O)N[C@H](C(=O)NCC#N)Cc3ccc(OCCN)c(c3)-c3cc2ccc3OCCN)c(Cl)c1 [Compound 267]		0.012 (≈ 0.0135 µM)		0.63	0.027 (≈ 0.0303 µM)	0.13 (≈ 0.146 µM)			
CCCCCCc1ccc(NC(=O)N[C@@H](CCN)C(=O)N(C)[C@@H]2C(=O)N[C@@H](C)C(=O)N[C@H](C(=O)NCC#N)Cc3ccc(OCCN)c(c3)-c3cc2ccc3OCCN)c(C)c1 [Compound 404]		0.047 (≈ 0.055 µM)		0.88	0.063 (≈ 0.0737 µM)	2 (≈ 2.34 µM)			
CCCCCCCCc1ccc(C(=O)N[C@@H](CCCN)C(=O)N(C)[C@@H]2C(=O)N[C@@H](C)C(=O)N[C@H](C(=O)NCC#N)Cc3ccc(OC)c(c3)-c3cc2ccc3OC)c(OC)c1 [Compound 473]	1.5 (≈ 1.79 µM)	0.25 (≈ 0.298 µM)	> 64	39					
CCCCCCCOc1ccc(C(=O)N[C@@H](CCN)C(=O)N(C)[C@@H]2C(=O)N[C@@H](C)C(=O)N[C@H](C(=O)NCC#N)Cc3ccc(OCCN)c(c3)-c3cc2ccc3OCCN)c2ccccc12 [Compound 295]	0.031 (≈ 0.0342 µM)	< 0.0039	0.13 (≈ 0.143 µM)	0.69					
CCCCCCCCC(F)C(=O)NC(CO)C(=O)N(C)C1C(=O)NC(C)C(=O)NC(C(=O)NCC#N)Cc2ccc(OCCN)c(c2)-c2cc1ccc2OCCN (single isomer, unassigned) [Compound 394-P2]				2.7			0.5 (≈ 0.627 µM)	0.38 (≈ 0.477 µM)	64 (≈ 80.3 µM)
CCCCCCCOc1ccc(C(=O)N[C@@H](CCN)C(=O)N(C)[C@@H]2C(=O)N[C@@H](C)C(=O)N[C@H](C(=O)NCC#N)Cc3ccc(OCCN)c(c3)-c3cc2ccc3OCCN)c(C(F)(F)F)c1 [Compound 273]	0.031 (≈ 0.0335 µM)	0.016 (≈ 0.0173 µM)	0.5 (≈ 0.541 µM)	0.6					
CCCCCCCCCC(=O)N[C@@H](CCN)C(=O)N(C)[C@@H]1C(=O)N[C@@H](C)C(=O)N[C@H](C(=O)NCC#N)Cc2ccc(OCCN)c(c2)-c2cc1ccc2OCCN [Compound 105]	0.13 (≈ 0.164 µM)	0.031 (≈ 0.0391 µM)	8 (≈ 10.1 µM)	0.82					
CCCCCCCCCCCC(=O)N[C@@H](CC#N)C(=O)N(C)[C@@H]1C(=O)N[C@@H](C)C(=O)N[C@H](C(=O)NCC#N)Cc2ccc(OCCN)c(c2)-c2cc1ccc2OCCN [Compound 453]		0.13 (≈ 0.159 µM)		2.3	0.13 (≈ 0.159 µM)	16 (≈ 19.6 µM)			
CCCCCCCCc1ccc(C(=O)N[C@@H](CN)C(=O)N(C)[C@@H]2C(=O)N[C@@H](C)C(=O)N[C@H](C(=O)NCC#N)Cc3ccc(OCCN)c(c3)-c3cc2ccc3OCCN)cc1 [Compound 344]	0.094 (≈ 0.112 µM)	0.036 (≈ 0.0429 µM)	0.38 (≈ 0.452 µM)	1					
CCCCCCCC(F)(F)c1ccc(C(=O)N[C@@H](CCN)C(=O)N(C)[C@@H]2C(=O)N[C@@H](C)C(=O)N[C@H](C(=O)NCC#N)Cc3ccc(OCCN)c(c3)-c3cc2ccc3OCCN)c(Cl)c1 [Compound 412]		0.012 (≈ 0.013 µM)		0.6	0.031 (≈ 0.0335 µM)	0.13 (≈ 0.141 µM)			
Cc1cc(CC(C)(C)C)ccc1C(=O)N[C@@H](CCN)C(=O)N(C)[C@@H]1C(=O)N[C@@H](C)C(=O)N[C@H](C(=O)NCC#N)Cc2ccc(OCCN)c(c2)-c2cc1ccc2OCCN [Compound 219]	0.19 (≈ 0.23 µM)	0.023 (≈ 0.0278 µM)	1.5 (≈ 1.82 µM)	1.9					
C[C@@H]1NC(=O)[C@@H](N(C)C(=O)[C@H](CCN)NC(=O)c2ccc(-c3ccc(Cl)cc3)cc2)c2ccc(OCCN)c(c2)-c2cc(ccc2OCCN)C[C@@H](C(=O)NCC#N)NC1=O [Compound 147]		0.023 (≈ 0.027 µM)		0.69	0.094 (≈ 0.11 µM)	1.5 (≈ 1.76 µM)			
